In data set [1] the target is Arf6 (Homo sapiens (Human), UniProt P62330). Briefly: Fluorometric assay for Arf6 nucleotide exchange catalyzed by ARNO Sec7 domain (GTP-BODIPY FL). The data set is classed as biochemical.
The subject of data set [2] is VEGF-induced retinal permeability. Briefly: VEGF-induced retinal permeability in mice (Evans blue dye). The data set is classed as in vivo. The note with it: mice. The procedure:
In the experiment, VEGF (50 ng) and either Compound 38 or 65 (500 ng) or NAV-3745 (500 ng) were given to mice in a single intraocular injection. Evans blue dye (EBD) was given via IV approximately 6 hours after the injection, and the retinas were harvested after an additional 2 hours. Retinal permeability was measured on Day 2 after an overnight extraction of EBD in formamide, at OD 620-740 nm.
In the experiment, VEGF (50 ng) and the test compound were given to mice in a single intraocular injection. Avastin was given at a dose of 20 μg, Compound 38 at either 50 ng or 500 ng (as noted in FIG. 7), and SU4312 at 5 μg. As with the previous experiment, Evans blue dye (EBD) was given via IV approximately 6 hours after the injection, and the retinas were harvested after an additional 2 hours. Retinal permeability was measured on Day 2 after an overnight extraction of EBD in formamide, at OD 620-740 nm.

For another data set, the system named is H1N1 virus. As to conditions: IP QD five days; Compound 65 20 mg/kg, ribavirin 75 mg/kg.
In data set [3] the target is Arf6 (Mus musculus (Mouse), UniProt P62331). Briefly: Arf6 pulldown assay (GTP-bound Arf6, GST-Gga3, Western blot). As to conditions: NIH3T3 cells, 4 hours incubation. The data set is classed as cell-based. As to the method: The cell cultures were incubated in the presence of test compounds for 4 hours followed by pull-down of GTP-bound Arf6 from cell lysates using recombinant GST-Gga3 immobilized on glutathione agarose and Western blot analysis.
Sequence of Arf6 (Mus musculus (Mouse), UniProt P62331) (P62331 whole entry): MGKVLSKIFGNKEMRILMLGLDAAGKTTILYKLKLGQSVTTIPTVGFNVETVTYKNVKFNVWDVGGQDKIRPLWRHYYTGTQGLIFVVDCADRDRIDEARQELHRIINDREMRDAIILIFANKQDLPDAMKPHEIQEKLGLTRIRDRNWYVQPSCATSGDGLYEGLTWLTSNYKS
Arf6 pulldown assay: Assessment of intracellular levels of active Arf6 may be a direct mechanism-based approach for monitoring on-target cellular activities of active Arf6 inhibitors. A commercially available pull-down technique, which relies on recombinant Gga3 protein as a sensor of the GTP-bound state for the members of Arf protein family, can be employed for this purpose (see, e.g., Shiba T, Kawasaki M, Takatsu H, Nogi T, Matsugaki N, Igarashi N, Suzuki M, Kato R, Nakayama K, Wakatsuki S. Molecular mechanism of membrane recruitment of GGA by ARF in lysosomal protein transport. Nat Struct Biol. 2003 May; 10(5):386-93).
The vendor's procedure was modified from 10-cm culture dish to 24-well plate format and adapted to a number of different cell lines, including cultured mouse embryonic fibroblasts NIH 3T3 due to its robust response to Arf6 inhibitors observed in the proof-of-principle studies (see FIG. 2).
On the technique in general: In western blotting, separated proteins are transferred to a membrane and probed.

For data set [4], the system named is LOX melanoma cells. Briefly: Cell invasion assay (Matrigel Invasion Chambers). The data set is classed as cell-based. The source says:
Cell invasion assay: This assay uses Matrigel Invasion Chambers (BD Biosciences) and monitors cell penetration through 8.0 μm filters coated with a solubilized basement membrane matrix, which serves as barrier for non-invading cells (see, e.g., Albini A, Iwamoto Y, Kleinman H K, Martin G R, Aaronson S A, Kozlowski J M, McEwan R N. A rapid in vitro assay for quantitating the invasive potential of tumor cells. Cancer Res. 1987 Jun. 15; 47(12):3239-45).

Data set [5] relates to LOX melanoma cells. Briefly: Cell proliferation assay (WST-8), LOX. The data set is classed as cell-based. The note with it: concentrations greater than 1 μM. The text has this:
(§1) Cell proliferation assay: This assay employs WST-8 colorimetric readout (Dojindo) and relies on the total activity of mitochondrial dehydrogenases as a measure of the number of viable cells over time.
(In general: Tetrazolium dyes change colour on reduction, which living cells bring about.)

Data set [6] deals with LN-229 glioblastoma cells. Briefly: Cell proliferation assay (WST-8), LN-229. The format is cell-based. As to conditions: concentrations greater than 1 μM.
From the text: as §1

The subject of data set [7] is VEGF-induced retinal permeability. Description: VEGF-induced retinal permeability in rats (Evans blue dye). The format is in vivo. The note with it: rats; Compound 38 60 mg/kg IP, Avastin 200 μg intraocular (FIG. 8). As to the method:
In the experiment, VEGF (500 ng) and Avastin (200 μg) were given to rats in a single intraocular injection on Day 1. Compound 38 (60 mg/kg) was administered by IP injection 1 hour prior to VEGF on Day 1. Rats were given Evans blue dye (EBD) via IV infusion on Day 2, and the retinas were harvested after an additional 1.5 hours. The retinas were dissected and incubated overnight in formamide. Vascular leak was calculated on Day 3.

For data set [8], the system named is Choroidal Neovascularization (CNV). Briefly: Laser-induced choroidal neovascularization (CNV) in mice. The note with it: 5 μg, 0.5 μg and 0.05 μg on Days 0 and 7, measured Day 14. The format is in vivo. As to the method:
In the experiment on Day 0, the Bruch's membrane of each eye was disrupted with a laser. On Days 0 and 7, test compounds were administered, and on Day 14, the area of CNV was measured. Commercially available compound SU4312 was used as a positive control. Compound 38 was dosed at 5 μg, 0.5 μg, and 0.05 μg, as noted in FIG. 9.

Data set [9] has as its system oxygen-induced retinopathy. Briefly: Oxygen-induced retinopathy (OIR) in mice. The data set is classed as in vivo. As to conditions: 5 μg intraocular Days 12 and 15, measured Day 17. As to the method: In the experiment, mice pups were placed in a 75% oxygen environment from Days 5-12. The mice were returned to a normal oxygen environment on Day 13. The test compounds were administered (5 μg) by intraocular injection on Days 12 and 15, and the area of neovascularization was measured on Day 17. Compound 38 was compared with SU4312 in oxygen-induced retinopathy (OIR) in mice (see FIG. 11). […]

Data set [10] relates to LPS-induced acute lung injury. Briefly: LPS-induced acute lung injury in mice (BALF analysis). The data set is classed as in vivo. The note with it: 24 hours after LPS, Compound 38 60 mg/kg, dexamethasone 5 mg/kg. The procedure: In the experiment, LPS (5 mg/kg) was given by intra-tracheal instillation. Dexamethasone (5 mg/kg) was given as a positive control 2 hours after the LPS. Bronchoalveolar fluid (BALF) was analyzed for cell count and protein 24 hours after the LPS.

Setting [11] is: 20 nM Arf6 assay, read-out: IC50 (μM) 20 nM Arf6.
The mark [12] stands for this setting: 200 nM Arf6 assay, read-out: IC50 (μM) 200 nM Arf6.
Where [13] appears, read: 500 ng single intraocular injection with VEGF 50 ng (FIG. 6).

“Also recorded” adds a separate entry of the source. Where two headings read alike, the source gives them in different places.

For orientation: IC50 means the concentration at which inhibition is half-maximal.

Sequence of Arf6 (Homo sapiens (Human), UniProt P62330) (P62330 14-175): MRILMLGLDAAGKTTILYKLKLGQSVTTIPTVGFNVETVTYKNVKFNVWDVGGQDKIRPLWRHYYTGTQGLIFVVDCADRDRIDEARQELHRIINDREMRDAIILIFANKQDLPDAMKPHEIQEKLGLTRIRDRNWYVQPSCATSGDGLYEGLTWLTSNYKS

As to `O=c1cc(Cc2ccccc2)[nH]c2c(-c3ccc(Cl)cc3)c(C(F)(F)F)nn12` [Compound 65], the half-maximal inhibitory concentration (IC50) on Arf6 [1] (setting [11]) was found to be 3.7 µM; at Arf6 [1] (setting [12]), 4.9 µM. Besides, the VEGF-induced retinal permeability entry in data set [2] (setting [13]) is recorded as “reduced VEGF-induced retinal permeability”. Also, the “mortality of mice infected with H1N1 virus” value in the data set with H1N1 virus was “reduced the mortality of mice nearly as well as ribavirin”.

With `O=c1cc(-c2ccc([N+](=O)[O-])cc2)[nH]c2c(-c3ccc(Cl)cc3)c(Cc3ccccc3)nn12` [Compound 38], the IC50 is 1.8 µM at Arf6 [1] (setting [11]) and 1.4 µM on Arf6 [1] (setting [12]). Moreover, the “Inhibition of Arf6 activation (GTP-bound Arf6)” value at Arf6 [3] is “Inhibition of Arf6 activation”. Further, in the data set with LOX melanoma cells [4] (1 μM), the “FBS-induced LOX cell invasion through Matrigel” value was “substantially inhibit, or completely inhibit”. Also, in the data set with LOX melanoma cells [4] (LOX melanoma cells), the “inhibition of melanoma cell invasion” value is listed as “can inhibit invasion; also recorded: more potent inhibitor of melanoma cell invasion than SecinH3”. Moreover, the “inhibition of LOX cell proliferation” value in the data set on LOX melanoma cells [5] is “can inhibit proliferation; also recorded: potent inhibitor”. Moreover, in data set [6], the “inhibition of LN-229 cell proliferation” value is “can inhibit proliferation; also recorded: potent inhibitor”. Moreover, the VEGF-induced retinal permeability entry is “reduced VEGF-induced retinal permeability” in [2] (setting [13]); “reduced VEGF-induced retinal permeability” in [2] (single intraocular injection, Compound 38 50 ng or 500 ng, Avastin 20 μg, SU4312 5 μg (FIG. 7)); “reduced VEGF-induced retinal permeability” in data set [7]. Moreover, the “area of CNV” value in [8] is on record as “reduced the area of CNV in a dose-dependent manner”. Also, the area of neovascularization entry in [9] is “reduced the area of neovascularization”. For the same compound, the “number of cells in the lung fluid (BALF)” value in data set [10] is on record as “reduced the number of cells”. For the same compound, the “protein concentration in the lung fluid (BALF)” value in data set [10] was “reduced”.

For the origin of these results see patent US10849901B2, “Arf6 inhibitors and methods of synthesis and use thereof” (Navigen, Inc., priority 2014, dated 2020).
